Measurements taken from US20080267905A1, “Methods and Compositions Using Selective Cytokine Inhibitory Drugs for Treatment and Management of Cancers and Other Diseases” (CELGENE CORPORATION, priority 2004, published 2008).

How the values were obtained:
[1] = Cardiovascular and respiratory function in anesthetized dogs; assay type: in vivo; conditions: anesthetized Beagle dogs
Procedure: The effects of 3-(3,4-dimethoxy-phenyl)-3-(1-oxo-1,3-dihydro-isoindol-2-yl)-propionamide on cardiovascular and respiratory function are investigated in anesthetized dogs. Two groups of Beagle dogs (2/sex/group) are used. One group receives three doses of vehicle only and the other receives three ascending doses of the compound (200, 400, and 800 mg/kg). In all cases, doses of the compound or vehicle are successively administered via infusion through the jugular vein separated by intervals of at least 30 minutes.

TNF-α production = assay: Inhibition of TNF-α production following LPS-stimulation of human PBMC and human whole blood (in vitro cytokine studies); assay type: cell-based; conditions: compared with thalidomide
Source text: In a specific embodiment, the pharmacological properties of 3-(3,4-dimethoxy-phenyl)-3-(1-oxo-1,3-dihydro-isoindol-2-yl)-propionamide are characterized in in vitro studies. Studies examine the effects of the compound on the production of various cytokines. Inhibition of TNF-α production following LPS-stimulation of human PBMC and human whole blood by the compound is investigated in vitro. […] The pharmacological effects of 3-(3,4-dimethoxy-phenyl)-3-(1-oxo-1,3-dihydro-isoindol-2-yl)-propionamide may derive from its action as an inhibitor of the generation of inflammatory cytokines.

COc1ccc(C(CC(N)=O)N2Cc3ccccc3C2=O)cc1OC (stereo not drawn) [3-(3,4-dimethoxy-phenyl)-3-(1-oxo-1,3-dihydro-isoindol-2-yl)-propionamide]
cardiovascular and respiratory changes ([1]; all doses (200, 400, and 800 mg/kg), infusion through the jugular vein, compared to vehicle control group): minimal | deviations in femoral blood flow, respiratory parameters, and Qtc interval ([1]; common to both the control and treated groups): not considered treatment-related | arterial blood pressure ([1]; following administration of the low dose, only statistically significant difference vs vehicle): small increase | arterial blood pressure effect at higher doses ([1]; higher doses): not seen at higher doses | duration of the arterial blood pressure effect ([1]; low dose): approximately 15 minutes | pharmacological activity profile, potency relative to thalidomide (TNF-α production): five to fifty times more potent than thalidomide
